# Experimental data reported in patent publication US20220354834A1, “METHODS AND MATERIALS FOR TREATING NEUROTOXICITY” (Cavion, Inc., priority 2019, published 2022).
# How the values were obtained:
# [1] = tested on: caudal nerves (BTZ-induced CIPN); assay: CIPN-reversal study: caudal nerve conduction velocity; format: in vivo, Wistar rat
# Procedure: (§1) Wistar female rats (n=52) (Envigo, Correzzano, Italy) at 10-11 weeks of age were utilized. The study was divided into 2 phases of 4 weeks each. […] Body weight was measured periodically during phase 1 from baseline (day 1) to day 28. At baseline and conclusion of phase 1 (day 28), nerve conduction velocity (NCV) was performed on caudal and sciatic nerves and Dynamic Aesthesiometer Test (DAT) measured mechanical threshold (MT) of the hind paw. […] Body weight was measured periodically from baseline (day 28) to day 56 (termination). NCV and MT were measured in all 4 groups at baseline and on day 35 and 56. […] At termination, sciatic nerves were obtained for β-tubulin polymerization and skin samples were procured for intraepidermal nerve fiber (IENF) density and histopathology.
# (§2) NCV (meters/second) was obtained from caudal and sciatic nerves with an electromyography tool (Myto 2, ABN Neuro, Firenze, Italy). Caudal NCV was measured by placement of recording needle electrodes distally in the tail with stimulating needle electrodes 5 cm and 10 cm proximal to recording point. Peak latencies of potentials recorded at the 2 sites after nerve stimulation were determined and NCV was calculated. Sciatic NCV was determined by placement of needle recording electrodes near ankle bone and stimulating electrodes close to thigh. Peak latencies were recorded similar to caudal nerve and NCV was calculated. NCV was performed under standard conditions in a temperature-controlled facility (22±2° C.) and rats were under isoflurane anesthesia with monitoring of vital signs.
# [2] = CIPN-reversal study: body weight, tolerability, mortality; format: in vivo; settings: rat, in vivo
# Procedure: Rats were housed 2-3 per cage under similar environmental conditions as nude mice in the interference study.
# as §1
# [3] = tested on: RPMI-8226 human myeloma xenografts; assay: In vivo BTZ and combination (BTZ and CX-8998) anti-tumor (interference) study, tumor volume; design: species or system athymic nude mouse
# Description: (§3) Care and husbandry of mice complied with USDA (U.S. Department of Agriculture) Animal Welfare Act and START IACUC (Institutional Animal Care and Use Committee) regulations. The protocol was reviewed and approved by START IACUC. Mice were individually housed in Sealsafe® Plus ventilated cages (Techniplast, West Chester, Pa., USA) and fed with Teklad 2919 (Envigo, Somerset, N.J., USA), irradiated, 19% protein, 9% fat and 4% fiber mouse chow. Mice were maintained under controlled environmental conditions (22+/−2° C. temperature, 55+/−10% relative humidity and 12-hour light/dark cycle (7 a.m.-7 p.m.).
# (§4) South Texas Accelerated Research Therapeutics (START) (San Antonio, Tex., USA) conducted this study. […] The 30 mg/kg dose was tolerated in preclinical safety studies and anticipated to result in exposures in excess of the therapeutic range for 28 days. Body weight, TV and animal observations were collected twice per week to day 18 (termination) for vehicle control mice and twice per week to day 28 (termination) for each of the other 3 groups. Mean±SD body weight and TV were analyzed with Kruskal-Wallis and Dunn multiple comparison test at day 18 and with Mann Whitney test at day 28 with statistical significance at p<0.05.
# [4] = tested on: intraepidermal nerve fibers (BTZ-induced CIPN); assay: IENF density and histopathology of plantar glabrous skin; format: in vivo, Wistar rat
# Procedure: as §1
# At day 56, animals were euthanized by CO2 inhalation and tissue samples were procured from 4 rats per group. Right sciatic nerve was frozen in liquid nitrogen for β-tubulin polymerization assay and plantar glabrous skin samples were collected for IENF density.
# Plantar glabrous skin samples (5 mm) from hind paws were fixed in 2% PLP (paraformaldehyde-lysine-sodium periodate) for 24 hours at 4° C. and cryoprotected overnight. Samples were serially cut with a cryostat to yield 20 μm sections. Three sections from each footpad were randomly selected and immunostained with rabbit polyclonal anti-protein gene product 9.5 (PGP 9.5; GeneTex, Irvine, Calif., USA) in combination with biotinylated anti-rabbit IgG and Vector SG substrate kit peroxidase (Vector Laboratories, Burlingame, Calif.) using a free-floating protocol. A blinded observer counted total number of immune-positive IENF in each section under light microscopy at high magnification with a microscope video camera. Individual fibers were counted that crossed dermal-epidermal interface. Secondary branches within epidermis were excluded. Length of epidermis was measured to generate linear density of IENF/millimeter as described elsewhere (Canta et al., 2016 Neurobiol Aging 45:136-148).
# [5] = tested on: hind paw mechanical allodynia (BTZ-induced CIPN); assay: CIPN-reversal study: Dynamic Aesthesiometer Test, mechanical threshold; format: in vivo, Wistar rat
# Procedure: as §1
# MT was assessed with the DAT device (Model 37450, Ugo Basile Biological Instruments, Comerio, Italy). After acclimation, a servo-controlled pointed metallic filament (0.5 mm diameter) was placed on plantar surface of the hind paw and exerted a progressive punctate pressure up to 50 grams within 20 seconds. The pressure elicited a voluntary hind paw withdrawal response that was recorded and represented MT index. MT was collected alternatively on each side every 2 minutes on 3 occasions to yield a mean value. Mean MT values represented maximum pressure (grams) tolerated by each rat. Exposure of each animal to mechanical stimulus was limited to 30 seconds.
# [6] = In vivo anti-tumor (interference) study: body weight; design: species or system athymic nude mouse; settings: 1 mg/kg BTZ alone iv twice weekly, 28 days
# Description: as §3, §4
# [7] = tested on: sciatic nerves (BTZ-induced CIPN); assay: CIPN-reversal study: sciatic nerve conduction velocity; format: in vivo, Wistar rat
# Procedure: as §1, §2
compound,measurement,setting,value
"CC(C)C[C@H](NC(=O)[C@H](Cc1ccccc1)NC(=O)c1cnccn1)B(O)O [BTZ, bortezomib, reference compound]",caudal NCV,"[1]; BTZ vs control at weeks 4, 5 and 8 (p<0.01, p<0.05, p<0.001)",significantly reduced
same,"NCV OF CAUDAL NERVE (8 weeks), Difference in rank sum (Dunn's Multiple Comparison Test)","[1]; CTRL vs BTZ, P < 0.001 ***",37.00
same,"NCV OF CAUDAL NERVE (5 weeks), Difference in rank sum (Dunn's Multiple Comparison Test)","[1]; CTRL vs BTZ, P < 0.05 *",15.75
same,body weight change,[2],not significantly different
same,tolerability,[2],well tolerated
same,"TUMOR GROWTH DAY 18, Difference in rank sum (Dunn's Multiple Comparison Test)","[3]; Vehicle Control vs BTZ, P < 0.001 ***",13.13
same,tumor volume (TV),"[3]; day 18, BTZ alone 1 mg/kg vs vehicle control, p<0.001",significantly reduced TV
same,tumor volume (TV) trend,"[3]; day 18 through day 28, BTZ alone",tended to increase
same,IENF density (number of fibers per millimeter),"[4]; BTZ alone vs control, p<0.001",significantly decreased
same,"IENF DENSITY, Difference in rank sum (Dunn's Multiple Comparison Test)","[4]; CTRL vs BTZ, week 8, P < 0.001 ***",28.99
same,"DYNAMIC TEST 8 WEEKS, Difference in rank sum (Dunn's Multiple Comparison Test)","[5]; CTRL vs BTZ, P < 0.001 ***",23.19
same,"DYNAMIC TEST 5 WEEKS, Difference in rank sum (Dunn's Multiple Comparison Test)","[5]; CTRL vs BTZ, P < 0.05 *",17.24
same,mechanical threshold (MT) in hind paws,"[5]; week 4, BTZ vs control, p<0.0001",significantly reduced
same,body weight,[6],transient body weight loss during first two weeks of treatment and no weight gain at day 18 and 28
same,sciatic NCV,[7]; BTZ vs control at week 5,numerically less than control but the difference was not statistically significant
same,sciatic NCV,"[7]; BTZ vs control at weeks 4 and 8 (p<0.01, p<0.05)",significantly reduced
same,"NCV OF SCIATIC NERVE (8 weeks), Difference in rank sum (Dunn's Multiple Comparison Test)","[7]; CTRL vs BTZ, P < 0.05 *",22.10
same,"NCV OF SCIATIC NERVE (5 weeks), Difference in rank sum (Dunn's Multiple Comparison Test)","[7]; CTRL vs BTZ, P > 0.05 ns",2.250
